According to the supplement of paper PMC10307832:

These cell lines were tested with CC1=C(N=C(N=C1N)[C@H](CC(=O)N)NC[C@@H](C(=O)N)N)C(=O)N[C@@H]([C@H](C2=CN=CN2)OC3C(C(C(C(O3)CO)O)O)OC4C(C(C(C(O4)CO)O)OC(=O)N)O)C(=O)N[C@H](C)[C@H]([C@H](C)C(=O)N[C@@H]([C@@H](C)O)C(=O)NCCC5=NC(=CS5)C6=NC(=CS6)C(=O)NCCC[S+](C)C)O [Bleomycin] + Nc1nc2[nH]cc(CCc3ccc(C(=O)N[C@@H](CCC(=O)O)C(=O)O)cc3)c2c(=O)[nH]1 [Pemetrexed] (partner 0.2 µM) (assay: relative viability (nuclei count vs DMSO), 5 days (fraction); higher = more cells survive). Conditions: first compound 0.01 µM; main component drawn.
Method in brief: (§1)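 Relative viability is defined as nuclei in treated wells over nuclei in vehicle wells. Duplicate plates were run and medians reported. Lung cancer cell lines in 1536-well plates were dosed by pin tool one day after seeding, with one drug or with a fixed anchor-drug dose plus five library-drug doses (not always all listed) in √10 steps, and nuclei were counted after 5 days.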

Cell Line | relative viability
NCI-H23 | 0.419
NCI-H1355 | 1
NCI-H322M | 0.635
NCI-H1437 | 0.347
NCI-H1755 | 0.529
NCI-H2023 | 0.178
HCC-15 | 0.22
PC-3 [JPC-3] | 1.03
EKVX | 0.36
LC-2-ad | 0.267
NCI-H1975 | 0.267
SK-LU-1 | 0.934
NCI-H661 | 0.886
RERF-LC-KJ | 0.416

Same assay, conditions: first compound 0.03162 µM; main component drawn

Cell Line | relative viability
NCI-H23 | 0.342
NCI-H1355 | 1.04
NCI-H322M | 0.606
NCI-H1437 | 0.303
NCI-H1755 | 0.442
NCI-H2023 | 0.204
HCC-15 | 0.193
PC-3 [JPC-3] | 1.18
EKVX | 0.317
LC-2-ad | 0.265
NCI-H1975 | 0.252
SK-LU-1 | 1.04
NCI-H661 | 0.821
RERF-LC-KJ | 0.504

Same assay, conditions: first compound 0.1 µM; main component drawn

Cell Line | relative viability
NCI-H23 | 0.285
NCI-H1355 | 1.03
NCI-H322M | 0.723
NCI-H1437 | 0.312
NCI-H1755 | 0.426
NCI-H2023 | 0.157
HCC-15 | 0.233
PC-3 [JPC-3] | 0.948
EKVX | 0.315
LC-2-ad | 0.251
NCI-H1975 | 0.219
SK-LU-1 | 0.965
NCI-H661 | 0.688
RERF-LC-KJ | 0.391

Same assay, conditions: first compound 0.3162 µM; main component drawn

Cell Line | relative viability
NCI-H23 | 0.187
NCI-H1355 | 0.648
NCI-H322M | 0.573
NCI-H1437 | 0.288
NCI-H1755 | 0.381
NCI-H2023 | 0.136
HCC-15 | 0.193
PC-3 [JPC-3] | 0.647
EKVX | 0.285
LC-2-ad | 0.254
NCI-H1975 | 0.175
SK-LU-1 | 0.473
NCI-H661 | 0.412
RERF-LC-KJ | 0.261

Same assay, conditions: first compound 1 µM; main component drawn

Cell Line | relative viability
NCI-H23 | 0.171
NCI-H1355 | 0.298
NCI-H322M | 0.575
NCI-H1437 | 0.316
NCI-H1755 | 0.415
NCI-H2023 | 0.0973
HCC-15 | 0.154
PC-3 [JPC-3] | 0.526
EKVX | 0.2
LC-2-ad | 0.219
NCI-H1975 | 0.166
SK-LU-1 | 0.465
NCI-H661 | 0.366
RERF-LC-KJ | 0.142

What follows are cell lines tested with COc1cc([C@@H]2c3cc4c(cc3[C@@H](O[C@@H]3O[C@@H]5CO[C@@H](C)O[C@H]5[C@H](O)[C@H]3O)[C@H]3COC(=O)[C@H]23)OCO4)cc(OC)c1O [Etoposide] + CC(C)C[C@H](NC(=O)[C@H](Cc1ccccc1)NC(=O)c1cnccn1)B(O)O [Bortezomib] (partner 0.002 µM) in the same assay as above. Conditions: first compound 0.01 µM.
Method in brief: as §1

Cell Line | relative viability
NCI-H23 | 0.919
NCI-H1355 | 1.15
NCI-H322M | 1.27
NCI-H1437 | 0.378
NCI-H1755 | 0.995
NCI-H2023 | 0.975
HCC-15 | 0.959
PC-3 [JPC-3] | 0.795
EKVX | 1
LC-2-ad | 0.9
NCI-H1975 | 0.402
SK-LU-1 | 1.44
NCI-H661 | 0.735
RERF-LC-KJ | 1.04

Same assay, conditions: first compound 0.03162 µM

Cell Line | relative viability
NCI-H23 | 1.15
NCI-H1355 | 1.35
NCI-H322M | 1.22
NCI-H1437 | 0.547
NCI-H1755 | 1.02
NCI-H2023 | 1.15
HCC-15 | 1.04
PC-3 [JPC-3] | 0.756
EKVX | 1.18
LC-2-ad | 1.08
NCI-H1975 | 0.386
SK-LU-1 | 1.11
NCI-H661 | 0.828
RERF-LC-KJ | 1.2

Same assay, conditions: first compound 0.1 µM

Cell Line | relative viability
NCI-H23 | 0.516
NCI-H1355 | 0.671
NCI-H322M | 0.994
NCI-H1437 | 0.492
NCI-H1755 | 0.887
NCI-H2023 | 0.456
HCC-15 | 1.13
PC-3 [JPC-3] | 0.93
EKVX | 0.4
LC-2-ad | 0.977
NCI-H1975 | 0.411
SK-LU-1 | 0.765
NCI-H661 | 0.531
RERF-LC-KJ | 0.986

Same assay, conditions: first compound 0.3162 µM

Cell Line | relative viability
NCI-H23 | 0.317
NCI-H1355 | 1.13
NCI-H322M | 1.17
NCI-H1437 | 0.243
NCI-H1755 | 0.9
NCI-H2023 | 0.46
HCC-15 | 0.67
PC-3 [JPC-3] | 0.775
EKVX | 0.419
LC-2-ad | 0.742
NCI-H1975 | 0.322
SK-LU-1 | 0.515
NCI-H661 | 0.543
RERF-LC-KJ | 1.03

Same assay, conditions: first compound 1 µM

Cell Line | relative viability
NCI-H23 | 0.215
NCI-H1355 | 0.412
NCI-H322M | 1.07
NCI-H1437 | 0.273
NCI-H1755 | 0.969
NCI-H2023 | 0.123
HCC-15 | 0.157
PC-3 [JPC-3] | 0.67
EKVX | 0.372
LC-2-ad | 0.209
NCI-H1975 | 0.177
SK-LU-1 | 0.272
NCI-H661 | 0.276
RERF-LC-KJ | 0.923
